The values below come from ChEMBL document CHEMBL1132959, “Design of potent dicyclic (1-5/4-10) gonadotropin releasing hormone (GnRH) antagonists” (J Med Chem, 2000).

The species entered for assay [1] is Rattus norvegicus. As to the kind of experiment: Antiovulatory potency at 5 ug/rat expressed as rats ovulating by total no. of rats (3/20). The format is functional.
The species entered for assay [2] is Rattus norvegicus. The assay is described as follows: Antiovulatory potency at 10 ug/rat expressed as rats ovulating by total no. of rats (0/10). The format is functional.
For assay [3], the species on record is Rattus norvegicus. As to the kind of experiment: Antiovulatory potency at 2.5 ug/rat expressed as rats ovulating by total no. of rats (3/5). It counts as functional.
The species entered for assay [4] is Rattus norvegicus. As to the kind of experiment: Antiovulatory potency at 5 ug/rat expressed as rats ovulating by total no. of rats (3/5). The format is functional.
For assay [5], the species on record is Rattus norvegicus. The assay is described as follows: Antiovulatory potency at 1 ug/rat expressed as rats ovulating by total no. of rats (4/4). The format is functional.
The target in assay [6] is T1, Gonadotropin-releasing hormone receptor (Rattus norvegicus, UniProt P30969).
T1 sequence (P30969 whole entry): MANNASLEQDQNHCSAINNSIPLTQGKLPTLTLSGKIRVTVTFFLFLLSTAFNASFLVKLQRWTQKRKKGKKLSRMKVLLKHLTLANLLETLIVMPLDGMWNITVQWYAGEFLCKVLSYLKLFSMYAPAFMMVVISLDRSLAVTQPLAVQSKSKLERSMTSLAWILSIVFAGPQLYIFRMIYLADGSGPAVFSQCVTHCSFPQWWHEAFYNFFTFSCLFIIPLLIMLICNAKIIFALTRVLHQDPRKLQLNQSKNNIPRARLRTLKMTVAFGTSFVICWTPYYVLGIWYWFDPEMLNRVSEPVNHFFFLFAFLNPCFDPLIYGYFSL
As to the kind of experiment: Affinity for rat gonadotrophin releasing hormone (GnRH) receptor using HEK293 cells transfected with rat Gonadotropin-releasing hormone receptor. Conditions: hek293. It counts as cell-based.

The target of assay [7] is T1, Gonadotropin-releasing hormone receptor. As to the kind of experiment: Affinity for rat Gonadotropin-releasing hormone receptor membrane evaluated using HEK293 cells transfected with rat Gonadotropin-releasing hormone receptor. The format is cell-based.
Assay [8] is filed under the species Rattus norvegicus. The assay is described as follows: Antiovulatory potency at 10 ug/rat expressed as rats ovulating by total no. of rats (4/5). The format is functional.
The species named for assay [9] is Rattus norvegicus. The assay is described as follows: Antiovulatory potency at 50 ug/rat expressed as rats ovulating by total no. of rats (0/3). It counts as functional.
Assay [10] is filed under the species Rattus norvegicus. The assay is described as follows: Antiovulatory potency at 25 ug/rat expressed as rats ovulating by total no. of rats (3/8). It counts as functional.
The species entered for assay [11] is Rattus norvegicus. As to the kind of experiment: Antiovulatory potency at 250 ug/rat expressed as rats ovulating by total no. of rats (3/3). It counts as functional.
The species named for assay [12] is Rattus norvegicus. The assay is described as follows: Antiovulatory potency at 250 ug/rat expressed as rats ovulating by total no. of rats (0/5). It counts as functional.
The species entered for assay [13] is Rattus norvegicus. As to the kind of experiment: Antiovulatory potency at 100 ug/rat expressed as rats ovulating by total no. of rats (5/5). The format is functional.
The species entered for assay [14] is Rattus norvegicus. As to the kind of experiment: Antiovulatory potency at 100 ug/rat expressed as rats ovulating by total no. of rats (0/4). The format is functional.
The species named for assay [15] is Rattus norvegicus. The assay is described as follows: Antiovulatory potency at 250 ug/rat expressed as rats ovulating by total no. of rats (5/5). The format is functional.
Assay [16] is filed under the species Rattus norvegicus. As to the kind of experiment: Antiovulatory potency at 250 ug/rat expressed as rats ovulating by total no. of rats (5/6). The format is functional.
The species named for assay [17] is Rattus norvegicus. The assay is described as follows: Antiovulatory potency at 50 ug/rat expressed as rats ovulating by total no. of rats (5/5). The format is functional.
The species named for assay [18] is Rattus norvegicus. As to the kind of experiment: Antiovulatory potency at 5 ug/rat expressed as rats ovulating by total no. of rats (1/7). It counts as functional.
Assay [19] is filed under the species Rattus norvegicus. As to the kind of experiment: Antiovulatory potency at 2.5 ug/rat expressed as rats ovulating by total no. of rats (2/8). It counts as functional.
Assay [20] is filed under the species Rattus norvegicus. The assay is described as follows: Antiovulatory potency at 10 ug/rat expressed as rats ovulating by total no. of rats (0/6). The format is functional.
The species entered for assay [21] is Rattus norvegicus. The assay is described as follows: Antiovulatory potency at 500 ug/rat expressed as rats ovulating by total no. of rats (5/7). It counts as functional.
The species named for assay [22] is Rattus norvegicus. As to the kind of experiment: Antiovulatory potency at 1 ug/rat expressed as rats ovulating by total no. of rats (5/7). It counts as functional.
Assay [23] is filed under the species Rattus norvegicus. As to the kind of experiment: Antiovulatory potency at 2.5 ug/rat expressed as rats ovulating by total no. of rats (4/16). The format is functional.
The species named for assay [24] is Rattus norvegicus. The assay is described as follows: Antiovulatory potency at 5 ug/rat expressed as rats ovulating by total no. of rats (0/5). The format is functional.
The species named for assay [25] is Rattus norvegicus. The assay is described as follows: Antiovulatory potency at 25 ug/rat expressed as rats ovulating by total no. of rats (3/7). The format is functional.
Assay [26] is filed under the species Rattus norvegicus. The assay is described as follows: Antiovulatory potency at 10 ug/rat expressed as rats ovulating by total no. of rats (5/5). The format is functional.
Assay [27] is filed under the species Rattus norvegicus. As to the kind of experiment: Antiovulatory potency at 50 ug/rat expressed as rats ovulating by total no. of rats (0/5). The format is functional.
The species entered for assay [28] is Rattus norvegicus. The assay is described as follows: Antiovulatory potency at 1500 ug/rat expressed as rats ovulating by total no. of rats (9/10). The format is functional.

Square brackets hold non-standard residues; d marks the D form. Peptide text beside a SMILES is read from it. dPhe(4-Cl) = N[C@H](Cc1ccc(Cl)cc1)C(=O)O; NMeL = CN[C@@H](CC(C)C)C(=O)O; ΔPro = O=C(O)[C@@H]1C=CCN1; βAla = NCCC(=O)O

As to `CC(=O)N[C@H](Cc1ccc2ccccc2c1)C(=O)N[C@H](Cc1ccc(F)cc1)C(=O)N[C@H](Cc1c[nH]c2ccccc12)C(=O)N[C@H]1CC(=O)NC[C@@H](C(N)=O)NC(=O)[C@@H]2CCCN2C(=O)[C@@H]2CCCCNC(=O)CC[C@H](NC1=O)C(=O)N[C@H](CCCN=C(N)N)C(=O)N[C@@H](CC(C)C)C(=O)N2`, the values for the Ovulating rats in assay [1] and in assay [2] were 3 and 0, respectively.

For orientation: Ki means a measure of affinity in units of concentration, obtained from inhibition or displacement. The low end stands for higher affinity, the high end for lower affinity. For the molecule `CC(=O)N[C@@H]1CC(=O)NCC(=O)NCC[C@H]2NC(=O)[C@@H](CC(=O)NC[C@H](C(N)=O)NC(=O)[C@H]3CCCN3C(=O)[C@H](CCCN=C(N)N)NC(=O)[C@@H](CC(C)C)NC(=O)[C@@H](Cc3ccc4ccccc4c3)NC2=O)NC(=O)[C@@H](Cc2cccnc2)NC(=O)[C@H](Cc2ccc(Cl)cc2)NC1=O`, the Ovulating rats in assay [3] is recorded as 3; in assay [4] it was 3; in assay [5], 4. For the same molecule, the Ki in assay [6] is 0.12 nM.

On to `CC(=O)N[C@@H]1CCC(=O)NCCCC[C@H]2NC(=O)[C@@H](CC(=O)NC[C@H](C(N)=O)NC(=O)[C@H]3CCCN3C(=O)[C@H](CCCN=C(N)N)NC(=O)[C@@H](CC(C)C)NC(=O)[C@@H](Cc3ccc4ccccc4c3)NC2=O)NC(=O)[C@@H](Cc2c[nH]c3ccccc23)NC(=O)[C@H](Cc2ccc(Cl)cc2)NC1=O`, for which, in assay [7], affinity was put at a Ki of 0.26 nM. For the same molecule, the Ovulating rats in assay [8] came out at 4; in [9], 0; in assay [10] it was 3.

With `CC(=O)N[C@@H]1CC(=O)NCC(=O)NCC[C@H]2NC(=O)[C@@H](CC(=O)NC[C@H](C(N)=O)NC(=O)[C@H]3CCCN3C(=O)[C@H](CCCN=C(N)N)NC(=O)[C@@H](CC(C)C)NC(=O)[C@@H](Cc3cccnc3)NC2=O)NC(=O)[C@@H](Cc2cccnc2)NC(=O)[C@H](Cc2ccc(Cl)cc2)NC1=O`, the Ovulating rats in [11] came to 3. The Ki in [6] came out at 1.6 nM.

As to `CC(=O)N[C@H](Cc1ccc2ccccc2c1)C(=O)N[C@H](Cc1ccc(Cl)cc1)C(=O)N[C@@H]1CC(=O)NCCC[C@@H](C(=O)N2CCC[C@H]2C(=O)N[C@H](C)C(N)=O)NC(=O)[C@H](CC(C)C)NC(=O)[C@@H](Cc2ccc3ccccc3c2)NC(=O)[C@H](CCCN=C(N)N)NC(=O)[C@H](C)NC1=O`, the Ovulating rats in [12] was found to be 0; in assay [13] it was 5.

Regarding `CC(=O)N[C@H](Cc1ccc2ccccc2c1)C(=O)N[C@H](Cc1ccc(Cl)cc1)C(=O)N[C@@H]1CC(=O)NCCCC[C@@H]2NC(=O)[C@H](CC(C)C)NC(=O)[C@@H](CCCN=C(N)N)NC(=O)[C@H](Cc3ccc(O)cc3)NC(=O)[C@H](CC(=O)NC[C@@H](C(N)=O)NC(=O)[C@@H]3CCCN3C2=O)NC1=O`, the Ovulating rats was 0 in [14] and 5 in [15].

Consider `CC(=O)N[C@H](Cc1ccc2ccccc2c1)C(=O)N[C@H](Cc1ccc(Cl)cc1)C(=O)N[C@@H]1CSSC[C@@H](C(=O)N2CCC[C@H]2C(=O)N[C@H](C)C(N)=O)NC(=O)[C@H](CC(C)C)NC(=O)[C@@H](Cc2ccc3ccccc3c2)NC(=O)[C@H](CCCN=C(N)N)NC(=O)[C@H](C)NC1=O`, for which the Ovulating rats in assay [16] and in assay [17] was 5 in each case.

In the case of `CC(=O)N[C@@H]1CCC(=O)NCC(=O)NCC[C@H]2NC(=O)[C@@H](CC(=O)NC[C@H](C(N)=O)NC(=O)[C@H]3CCCN3C(=O)[C@H](CCCN=C(N)N)NC(=O)[C@@H](CC(C)C)NC(=O)[C@@H](Cc3ccc4ccccc4c3)NC2=O)NC(=O)[C@@H](Cc2c[nH]c3ccccc23)NC(=O)[C@H](Cc2ccc(Cl)cc2)NC1=O`, the Ovulating rats in assay [18] was determined as 1; in assay [19] it was 2; in [20], 0.

Consider `CC(=O)N[C@H](Cc1ccc2ccccc2c1)C(=O)N[C@H]1CSSC[C@@H]2NC(=O)[C@H](Cc3ccc(O)cc3)NC(=O)[C@H](CC(=O)NC[C@@H](C(N)=O)NC(=O)[C@@H]3CCCN3C(=O)[C@H](CCCN=C(N)N)NC(=O)[C@H](CC(C)C)NC2=O)NC(=O)[C@@H](Cc2c[nH]c3ccccc23)NC1=O`, for which the Ovulating rats in [21] turned out to be 5. In addition, in assay [6], the Ki worked out at 13 nM.

Regarding `CC(=O)N[C@H]1CC(=O)NCC(=O)NCC[C@@H]2NC(=O)[C@H](CC(=O)NC[C@@H](C(N)=O)NC(=O)[C@@H]3CCCN3C(=O)[C@H](CCCN=C(N)N)NC(=O)[C@H](CC(C)C)NC(=O)[C@@H](Cc3ccc4ccccc4c3)NC2=O)NC(=O)[C@@H](Cc2c[nH]c3ccccc23)NC(=O)[C@@H](Cc2ccc(Cl)cc2)NC1=O`, the Ovulating rats in assay [22] is 5; in [23], 4; in [24], 0.

In the case of `CC(=O)N[C@H](Cc1ccc2ccccc2c1)C(=O)N[C@H](Cc1ccc(Cl)cc1)C(=O)N[C@@H]1CC(=O)NCCCC[C@@H](C(=O)N2CCC[C@H]2C(=O)N[C@H](C)C(N)=O)NC(=O)[C@H](CC(C)C)NC(=O)[C@@H](Cc2ccc3ccccc3c2)NC(=O)[C@H](CCCN=C(N)N)NC(=O)[C@H](C)NC1=O`, the Ovulating rats in [25] was determined as 3; in assay [26], 5; in assay [27], 0.

On to `CC(C)C[C@H]1C(=O)N[C@@H](CCCN=C(N)N)C(=O)N2CCC[C@H]2C(=O)NCCC(=O)N2CC=C[C@H]2C(=O)N[C@H](Cc2ccc(Cl)cc2)C(=O)N[C@H](Cc2c[nH]c3ccccc23)C(=O)N[C@@H](CO)C(=O)N[C@@H](Cc2ccc(O)cc2)C(=O)N[C@H](Cc2c[nH]c3ccccc23)C(=O)N1C` (cyclo([NMeL]RP[βAla][ΔPro][dPhe(4-Cl)][dW]SY[dW])), for which, in assay [28], the Ovulating rats was 9.
